Experimental data reported in patent US9255107B2 (NANJING SANHOME PHARMACEUTICAL CO., LTD., priority 2012, dated 2016).

Legend:
Human ABL1 (T315I) = Human ABL1 (T315I) (Homo sapiens (Human), UniProt P00519, T315I); experiment: ABL1 (T315I) kinase activity assay ([γ-33P] ATP, Abltide); assay type: biochemical; settings: 1.0 μM ATP, 5.0 μM Abltide, 120 minutes
Method: In the experimental example, the compounds prepared according the examples of the present invention were tested for the ability to inhibit ABL (T315I) kinase activity. […] Kinase activity was determined according to the manufacturer's instructions. Peptide substrate is Abltide ([…]), purchased from Millipore Corporation, USA. Ion exchange chromatography paper P81 (ion exchange filter paper) was purchased from Whatman Company, UK. [γ-33P] ATP was purchased from Perkin Elmer Company. […] [γ-33P] ATP was added at room temperature, with final concentration of 1.0 μM, and the reaction was performed for 120 minutes. 20 μl aliquots were transferred onto the ion exchange chromatography paper P81. […] Finally, γ-33P radioactivity was measured.

[1] = tested on: MDA-MB-231 human breast cancer cells; experiment: MTT assay, in vitro inhibitory activity on cells; assay type: cell-based; settings: typically 48 hours
Source text: (§1) In this example, MTT assay was used to detect in vitro inhibitory activity of the compounds prepared according to the above examples on the cells.
(§2) Dimethyl sulfoxide (DMSO) is capable of dissolving formazan in cells, and absorbance value can be measured at a wavelength of 490 nm by an enzyme-linked immunometric meter, which reflects the number of living cells. Within a certain range of the number of cells, the amount of MTT crystals formed is proportional to the number of living cells.
(§3) 2. Culturing in a 37° C., 5% CO2 incubator and keeping the cells adhering to the walls of the wells.
(§4) 4. Carefully removing the supernatant, gently washing with PBS and discarding the supernatant again.
(§5) 6. Terminating culturing and carefully discarding the medium in each well. 7. Adding 150 μl dimethyl sulfoxide into each well, shaking for 10 minutes at low speed in a shaker, to make crystals fully dissolved.
(§6) 8. Measuring the absorbance of each well at 490 nm by an enzyme-linked immunometric meter.

K562 leukemia cells = experiment: MTT assay, in vitro inhibitory activity on cells; assay type: cell-based; settings: Homo sapiens, typically 48 hours, read-out: IC50 K562 Chronic myelogenous leukemia cells
Source text: as §1, §2, §3, §4, §5, §6

[2] = tested on: Saos-2 human osteosarcoma cells; experiment: MTT assay, in vitro inhibitory activity on cells; assay type: cell-based; settings: typically 48 hours
Source text: as §1, §2, §3, §4, §5, §6

[3] = tested on: Ovcar-3 human ovarian cancer cells; experiment: MTT assay, in vitro inhibitory activity on cells; assay type: cell-based; settings: typically 48 hours
Source text: as §1, §2, §3, §4, §5, §6

[4] = tested on: MEG-01 human megakaryocyte leukemia cells; experiment: CellTiter-Glo cell viability assay, Bcr-Abl-positive cells; settings: MEG-01, 72 h, read-out: IC50 MEG-01
Method: (§7) The resulting solutions were 10-fold serially diluted and formulated into 10 concentrations.
(§8) MEG-01 human megakaryocyte leukemia cells and KU812 human peripheral blood basophilic leukocytes, purchased from ATCC Company, USA.
(§9) The peripheral wells were filled with sterile PBS;
(§10) 2) Adding 10 μl of 5× concentration gradient of the tested compound, and adding 10 μl medium containing 0.5% DMSO into the blank control wells, in which the concentration of DMSO was 0.1%;
(§11) 3) Incubating the cells in a 37° C./5% CO2 incubator;
(§12) 4) Adding 30 μl Cell Titer-Glo® Reagent 72 hours after adding the compound;
(§13) 5) Incubating in a 37° C./5% CO2 incubator for 10 minutes; and centrifuging at low speed and then measuring chemiluminescence values on a PHERAstar microplate reader.
(§14) 6) Calculating cell viability (Cell Viability=(RLUsample/RLUnegative)×100%, wherein RLUsample was RLU (Relative Light Units) value of the well added with the compound and RLUnegative was RLU value of the well without the compound (i.e., cell control, which was treated with the same concentration of DMSO)). Data were processed by using a four-parameter logistic fitting module in Graphpad Prism 4.0 software to calculate IC50.

[5] = tested on: KU812 human peripheral blood basophilic leukocytes; experiment: as above; settings: KU812, 72 h, read-out: IC50 KU812
Method: as §7, §8, §9, §10, §11, §12, §13, §14

Row | IC50 (Human ABL1 (T315I)) [nM] | IC50 [1] [nM] | IC50 (K562 leukemia cells) [nM] | IC50 [4] [nM] | Compound | IC50 [2] [nM] | IC50 [3] [nM] | IC50 [5] [nM]
1 | 6.81 | 3010 | 4520 |  | Cc1ccc(C(=O)Nc2ccc(CN3CCN(C)CC3)c(C(F)(F)F)c2)cc1C#Cc1ccc(-c2ncc[nH]2)nc1 [Example 19, 4-methyl-3-((2-(1H-imidazol-2-yl)pyridin-5-yl)ethynyl)-N-[4-((4-methylpiperazin-1-yl)methyl)-3-trifluoromethylphenyl]benzamide] |  |  | 
2 | 57.9 |  | 1430 |  | Cc1ccc(C(=O)Nc2ccc(CN3CCN(C)CC3)c(C(F)(F)F)c2)cc1C#Cc1ccc(-c2ncc(C(F)(F)F)[nH]2)nc1 [Example 18, 4-methyl-3-((2-(5-trifluoromethyl-1H-imidazol-2-yl)pyridin-5-yl)ethynyl)-N-[4-((4-methylpiperazin-1-yl)methyl)-3-trifluoromethylphenyl]benzamide] |  |  | 

More lines, now with the values behind:

Row | Compound | IC50 (Human ABL1 (T315I)) [nM] | IC50 [1] [nM] | IC50 (K562 leukemia cells) [nM] | IC50 [4] [nM] | IC50 [2] [nM] | IC50 [3] [nM] | IC50 [5] [nM]
3 | Cc1ccc(C(=O)Nc2ccc(CN3CCN(C)CC3)c(C(F)(F)F)c2)cc1C#Cc1cn(C)c(-c2ncc(C(F)(F)F)[nH]2)n1 [Example 9, 4-methyl-3-((1-methyl-5′-trifluoromethyl-1H,1′H-[2,2′-diimidazol]-4-yl)ethynyl)-N-[4-((4-methylpiperazin-1-yl)methyl)-3-trifluoromethylphenyl]benzamide] | 6.45 | 5080 | 330 |  | 1160 | 6500 | 
4 | Cc1ccc(C(=O)Nc2ccc(CN3CCN(C)CC3)c(C(F)(F)F)c2)cc1C#Cc1ccn2nc(N)nc2c1 [Example 4, 3-((2-amino-[1,2,4]triazolo[1,5-a]pyridin-7-yl)ethynyl)-4-methyl-N-[4-((4-methylpiperazin-1-yl)methyl)-3-trifluoromethylphenyl]benzamide] |  | 1060 | 13500 | 3.28 |  |  | 0.789
5 | Cc1ccc(C(=O)Nc2ccc(CN3CCN(C)CC3)c(C(F)(F)F)c2)cc1C#Cc1ccn2nc(N(C)C)nc2c1 [Example 6, 3-((2-dimethylamino-[1,2,4]triazolo[1,5-a]pyridin-7-yl)ethynyl)-4-methyl-N-[4-((4-methylpiperazin-1-yl)methyl)-3-trifluoromethylphenyl]benzamide] | 39.4 |  | 4160 |  |  |  | 
6 | Cc1ccc(C(=O)Nc2ccc(CN3CCN(C)CC3)c(C(F)(F)F)c2)cc1C#Cc1cnc2[nH]ccc2n1 [Example 3] | 2.12 | 180 | 6330 | 1.38 | 380 | 2850 | 0.395
7 | CNc1nc2cc(C#Cc3cc(C(=O)Nc4ccc(CN5CCN(C)CC5)c(C(F)(F)F)c4)ccc3C)ccn2n1 [Example 5, 3-((2-methylamino-[1,2,4]triazolo[1,5-a]pyridin-7-yl)ethynyl)-4-methyl-N-[4-((4-methylpiperazin-1-yl)methyl)-3-trifluoromethylphenyl]benzamide] | 2.28 | 2150 | 6790 | 1.76 |  |  | 0.633
